{"source": "ChEMBL document CHEMBL3352110", "about": "“Design, synthesis and in vitro evaluation of novel dehydroabietic acid derivatives containing a dipeptide moiety as potential anticancer agents” (Eur J Med Chem, 2015)", "note": "pIC50: −log10 of the molar value.", "data": [{"system": "NCI-H460", "experiment": "Cytotoxicity against human NCI-H460 cells after 48 hrs by MTT assay", "format": "functional, cell-based", "conditions": "NCI-H460, 48 h", "values": [{"smiles": "COc1ccc(NC(=O)[C@@H](Cc2ccccc2)NC(=O)[C@]2(C)CCC[C@]3(C)c4ccc(C(C)C)cc4/C(=N\\O)C[C@@H]23)cc1", "pIC50": 4.69}, {"smiles": "COc1ccc(NC(=O)[C@@H](Cc2ccccc2)NC(=O)[C@]2(C)CCC[C@]3(C)c4ccc(C(C)C)cc4C(=O)C[C@@H]23)cc1", "pIC50": 4.46}, {"smiles": "COc1ccccc1NC(=O)[C@H](Cc1ccccc1)NC(=O)[C@]1(C)CCC[C@]2(C)c3ccc(C(C)C)cc3C(=O)C[C@@H]12", "pIC50": 4.47}, {"smiles": "CC(C)c1ccc2c(c1)C(=O)C[C@H]1[C@](C)(C(=O)N[C@H](Cc3ccccc3)C(=O)Nc3ccc(F)cc3)CCC[C@]21C", "pIC50": 4.46}, {"smiles": "CC(C)c1ccc2c(c1)/C(=N\\O)C[C@H]1[C@](C)(C(=O)N[C@H](Cc3ccccc3)C(=O)Nc3ccccc3F)CCC[C@]21C", "pIC50": 4.37}, {"smiles": "COc1cc(NC(=O)[C@@H](Cc2ccccc2)NC(=O)[C@]2(C)CCC[C@]3(C)c4ccc(C(C)C)cc4/C(=N\\O)C[C@@H]23)cc(OC)c1OC", "pIC50": 4.44}, {"smiles": "CC(C)c1ccc2c(c1)C(=O)C[C@H]1[C@](C)(C(=O)N[C@H](Cc3ccccc3)C(=O)Nc3ccccc3F)CCC[C@]21C", "pIC50": 4.21}, {"smiles": "CC(C)c1ccc2c(c1)/C(=N\\O)C[C@H]1[C@](C)(C(=O)N[C@H](Cc3ccccc3)C(=O)Nc3ccc(F)cc3)CCC[C@]21C", "pIC50": 4.23}, {"smiles": "COc1ccccc1NC(=O)[C@@H](Cc1ccccc1)NC(=O)[C@]1(C)CCC[C@]2(C)c3ccc(C(C)C)cc3C(=O)C[C@@H]12", "pIC50": 4.07}, {"smiles": "COc1cc(NC(=O)[C@H](Cc2ccccc2)NC(=O)[C@]2(C)CCC[C@]3(C)c4ccc(C(C)C)cc4/C(=N\\O)C[C@@H]23)cc(OC)c1OC", "pIC50": 4.44}, {"smiles": "COc1ccc(NC(=O)[C@H](Cc2ccccc2)NC(=O)[C@]2(C)CCC[C@]3(C)c4ccc(C(C)C)cc4/C(=N\\O)C[C@@H]23)cc1", "pIC50": 4.49}, {"smiles": "COc1ccccc1NC(=O)[C@@H](Cc1ccccc1)NC(=O)[C@]1(C)CCC[C@]2(C)c3ccc(C(C)C)cc3/C(=N\\O)C[C@@H]12", "pIC50": 4.43}, {"smiles": "CC(C)c1ccc2c(c1)/C(=N\\O)C[C@H]1[C@](C)(C(=O)N[C@@H](Cc3ccccc3)C(=O)Nc3ccccc3Cl)CCC[C@]21C", "pIC50": 4.44}, {"smiles": "CC(C)c1ccc2c(c1)C(=O)C[C@H]1[C@](C)(C(=O)N[C@@H](Cc3ccccc3)C(=O)Nc3ccccc3)CCC[C@]21C", "pIC50": 4.54}]}, {"system": "MGC-803", "experiment": "Cytotoxicity against human MGC803 cells after 48 hrs by MTT assay", "format": "functional, cell-based", "conditions": "MGC-803, 48 h", "values": [{"smiles": "O=c1[nH]cc(F)c(=O)[nH]1", "note": "[FLUOROURACIL]", "pIC50": 4.52}, {"smiles": "COc1ccc(NC(=O)[C@@H](Cc2ccccc2)NC(=O)[C@]2(C)CCC[C@]3(C)c4ccc(C(C)C)cc4/C(=N\\O)C[C@@H]23)cc1", "pIC50": 4.82}, {"smiles": "COc1ccc(NC(=O)[C@@H](Cc2ccccc2)NC(=O)[C@]2(C)CCC[C@]3(C)c4ccc(C(C)C)cc4C(=O)C[C@@H]23)cc1", "pIC50": 4.40}, {"smiles": "COc1ccccc1NC(=O)[C@H](Cc1ccccc1)NC(=O)[C@]1(C)CCC[C@]2(C)c3ccc(C(C)C)cc3C(=O)C[C@@H]12", "pIC50": 4.40}, {"smiles": "CC(C)c1ccc2c(c1)C(=O)C[C@H]1[C@](C)(C(=O)N[C@H](Cc3ccccc3)C(=O)Nc3ccc(F)cc3)CCC[C@]21C", "pIC50": 4.40}, {"smiles": "CC(C)c1ccc2c(c1)/C(=N\\O)C[C@H]1[C@](C)(C(=O)N[C@H](Cc3ccccc3)C(=O)Nc3ccccc3F)CCC[C@]21C", "pIC50": 4.87}, {"smiles": "COc1cc(NC(=O)[C@@H](Cc2ccccc2)NC(=O)[C@]2(C)CCC[C@]3(C)c4ccc(C(C)C)cc4/C(=N\\O)C[C@@H]23)cc(OC)c1OC", "pIC50": 4.81}, {"smiles": "CC(C)c1ccc2c(c1)C(=O)C[C@H]1[C@](C)(C(=O)N[C@H](Cc3ccccc3)C(=O)Nc3ccccc3F)CCC[C@]21C", "pIC50": 4.72}, {"smiles": "CC(C)c1ccc2c(c1)/C(=N\\O)C[C@H]1[C@](C)(C(=O)N[C@H](Cc3ccccc3)C(=O)Nc3ccc(F)cc3)CCC[C@]21C", "pIC50": 4.76}, {"smiles": "COc1ccccc1NC(=O)[C@@H](Cc1ccccc1)NC(=O)[C@]1(C)CCC[C@]2(C)c3ccc(C(C)C)cc3C(=O)C[C@@H]12", "pIC50": 4.51}, {"smiles": "COc1cc(NC(=O)[C@H](Cc2ccccc2)NC(=O)[C@]2(C)CCC[C@]3(C)c4ccc(C(C)C)cc4/C(=N\\O)C[C@@H]23)cc(OC)c1OC", "pIC50": 4.76}, {"smiles": "COc1ccc(NC(=O)[C@H](Cc2ccccc2)NC(=O)[C@]2(C)CCC[C@]3(C)c4ccc(C(C)C)cc4/C(=N\\O)C[C@@H]23)cc1", "pIC50": 4.84}, {"smiles": "CC(C)c1ccc2c(c1)CC[C@H]1[C@](C)(C(=O)O)CCC[C@]21C", "note": "[DEHYDROABIETIC ACID]", "pIC50": "< 4.00"}, {"smiles": "COc1ccccc1NC(=O)[C@@H](Cc1ccccc1)NC(=O)[C@]1(C)CCC[C@]2(C)c3ccc(C(C)C)cc3/C(=N\\O)C[C@@H]12", "pIC50": 4.73}, {"smiles": "CC(C)c1ccc2c(c1)/C(=N\\O)C[C@H]1[C@](C)(C(=O)N[C@@H](Cc3ccccc3)C(=O)Nc3ccccc3Cl)CCC[C@]21C", "pIC50": 4.65}, {"smiles": "CC(C)c1ccc2c(c1)C(=O)C[C@H]1[C@](C)(C(=O)N[C@@H](Cc3ccccc3)C(=O)Nc3ccccc3)CCC[C@]21C", "pIC50": 4.56}]}, {"system": "not listed separately", "experiment": "Cytotoxicity against human HL7702 cells after 48 hrs by MTT assay", "format": "functional, cell-based", "conditions": "L02, 48 h", "values": [{"smiles": "COc1ccc(NC(=O)[C@@H](Cc2ccccc2)NC(=O)[C@]2(C)CCC[C@]3(C)c4ccc(C(C)C)cc4/C(=N\\O)C[C@@H]23)cc1", "pIC50": 4.25}, {"smiles": "COc1ccc(NC(=O)[C@@H](Cc2ccccc2)NC(=O)[C@]2(C)CCC[C@]3(C)c4ccc(C(C)C)cc4C(=O)C[C@@H]23)cc1", "pIC50": 4.26}, {"smiles": "COc1ccccc1NC(=O)[C@H](Cc1ccccc1)NC(=O)[C@]1(C)CCC[C@]2(C)c3ccc(C(C)C)cc3C(=O)C[C@@H]12", "pIC50": 4.24}, {"smiles": "CC(C)c1ccc2c(c1)C(=O)C[C@H]1[C@](C)(C(=O)N[C@H](Cc3ccccc3)C(=O)Nc3ccc(F)cc3)CCC[C@]21C", "pIC50": 4.28}, {"smiles": "CC(C)c1ccc2c(c1)/C(=N\\O)C[C@H]1[C@](C)(C(=O)N[C@H](Cc3ccccc3)C(=O)Nc3ccccc3F)CCC[C@]21C", "pIC50": 4.26}, {"smiles": "COc1cc(NC(=O)[C@@H](Cc2ccccc2)NC(=O)[C@]2(C)CCC[C@]3(C)c4ccc(C(C)C)cc4/C(=N\\O)C[C@@H]23)cc(OC)c1OC", "pIC50": 4.25}, {"smiles": "CC(C)c1ccc2c(c1)C(=O)C[C@H]1[C@](C)(C(=O)N[C@H](Cc3ccccc3)C(=O)Nc3ccccc3F)CCC[C@]21C", "pIC50": 4.27}, {"smiles": "CC(C)c1ccc2c(c1)/C(=N\\O)C[C@H]1[C@](C)(C(=O)N[C@H](Cc3ccccc3)C(=O)Nc3ccc(F)cc3)CCC[C@]21C", "pIC50": 4.27}, {"smiles": "COc1ccccc1NC(=O)[C@@H](Cc1ccccc1)NC(=O)[C@]1(C)CCC[C@]2(C)c3ccc(C(C)C)cc3C(=O)C[C@@H]12", "pIC50": 4.25}, {"smiles": "COc1cc(NC(=O)[C@H](Cc2ccccc2)NC(=O)[C@]2(C)CCC[C@]3(C)c4ccc(C(C)C)cc4/C(=N\\O)C[C@@H]23)cc(OC)c1OC", "pIC50": 4.30}, {"smiles": "COc1ccc(NC(=O)[C@H](Cc2ccccc2)NC(=O)[C@]2(C)CCC[C@]3(C)c4ccc(C(C)C)cc4/C(=N\\O)C[C@@H]23)cc1", "pIC50": 4.30}, {"smiles": "COc1ccccc1NC(=O)[C@@H](Cc1ccccc1)NC(=O)[C@]1(C)CCC[C@]2(C)c3ccc(C(C)C)cc3/C(=N\\O)C[C@@H]12", "pIC50": 4.24}, {"smiles": "CC(C)c1ccc2c(c1)/C(=N\\O)C[C@H]1[C@](C)(C(=O)N[C@@H](Cc3ccccc3)C(=O)Nc3ccccc3Cl)CCC[C@]21C", "pIC50": 4.34}, {"smiles": "CC(C)c1ccc2c(c1)C(=O)C[C@H]1[C@](C)(C(=O)N[C@@H](Cc3ccccc3)C(=O)Nc3ccccc3)CCC[C@]21C", "pIC50": 4.29}]}, {"system": "HeLa", "experiment": "Cytotoxicity against human HeLa cells after 48 hrs by MTT assay", "format": "functional, cell-based", "conditions": "not given", "values": [{"smiles": "O=c1[nH]cc(F)c(=O)[nH]1", "note": "[FLUOROURACIL]", "pIC50": 4.44}, {"smiles": "COc1ccc(NC(=O)[C@@H](Cc2ccccc2)NC(=O)[C@]2(C)CCC[C@]3(C)c4ccc(C(C)C)cc4/C(=N\\O)C[C@@H]23)cc1", "pIC50": 4.76}, {"smiles": "COc1ccc(NC(=O)[C@@H](Cc2ccccc2)NC(=O)[C@]2(C)CCC[C@]3(C)c4ccc(C(C)C)cc4C(=O)C[C@@H]23)cc1", "pIC50": 4.79}, {"smiles": "COc1ccccc1NC(=O)[C@H](Cc1ccccc1)NC(=O)[C@]1(C)CCC[C@]2(C)c3ccc(C(C)C)cc3C(=O)C[C@@H]12", "pIC50": 4.83}, {"smiles": "CC(C)c1ccc2c(c1)C(=O)C[C@H]1[C@](C)(C(=O)N[C@H](Cc3ccccc3)C(=O)Nc3ccc(F)cc3)CCC[C@]21C", "pIC50": 4.79}, {"smiles": "CC(C)c1ccc2c(c1)/C(=N\\O)C[C@H]1[C@](C)(C(=O)N[C@H](Cc3ccccc3)C(=O)Nc3ccccc3F)CCC[C@]21C", "pIC50": 4.68}, {"smiles": "COc1cc(NC(=O)[C@@H](Cc2ccccc2)NC(=O)[C@]2(C)CCC[C@]3(C)c4ccc(C(C)C)cc4/C(=N\\O)C[C@@H]23)cc(OC)c1OC", "pIC50": 4.49}, {"smiles": "CC(C)c1ccc2c(c1)C(=O)C[C@H]1[C@](C)(C(=O)N[C@H](Cc3ccccc3)C(=O)Nc3ccccc3F)CCC[C@]21C", "pIC50": 4.59}, {"smiles": "CC(C)c1ccc2c(c1)/C(=N\\O)C[C@H]1[C@](C)(C(=O)N[C@H](Cc3ccccc3)C(=O)Nc3ccc(F)cc3)CCC[C@]21C", "pIC50": 4.69}, {"smiles": "COc1ccccc1NC(=O)[C@@H](Cc1ccccc1)NC(=O)[C@]1(C)CCC[C@]2(C)c3ccc(C(C)C)cc3C(=O)C[C@@H]12", "pIC50": 4.39}, {"smiles": "COc1cc(NC(=O)[C@H](Cc2ccccc2)NC(=O)[C@]2(C)CCC[C@]3(C)c4ccc(C(C)C)cc4/C(=N\\O)C[C@@H]23)cc(OC)c1OC", "pIC50": 4.59}, {"smiles": "COc1ccc(NC(=O)[C@H](Cc2ccccc2)NC(=O)[C@]2(C)CCC[C@]3(C)c4ccc(C(C)C)cc4/C(=N\\O)C[C@@H]23)cc1", "pIC50": 4.96}, {"smiles": "COc1ccccc1NC(=O)[C@@H](Cc1ccccc1)NC(=O)[C@]1(C)CCC[C@]2(C)c3ccc(C(C)C)cc3/C(=N\\O)C[C@@H]12", "pIC50": 4.73}, {"smiles": "CC(C)c1ccc2c(c1)/C(=N\\O)C[C@H]1[C@](C)(C(=O)N[C@@H](Cc3ccccc3)C(=O)Nc3ccccc3Cl)CCC[C@]21C", "pIC50": 4.64}, {"smiles": "CC(C)c1ccc2c(c1)C(=O)C[C@H]1[C@](C)(C(=O)N[C@@H](Cc3ccccc3)C(=O)Nc3ccccc3)CCC[C@]21C", "pIC50": 4.54}]}]}
